Experimental findings from ChEMBL document CHEMBL5465560, “Selectivity Literature for EUbOPEN Chemogenomic Library” (2024) are described below.

The target in assay [1] is T1, Mitogen-activated protein kinase kinase kinase 12 (Homo sapiens) (UniProt Q12852).
T1 sequence (whole entry): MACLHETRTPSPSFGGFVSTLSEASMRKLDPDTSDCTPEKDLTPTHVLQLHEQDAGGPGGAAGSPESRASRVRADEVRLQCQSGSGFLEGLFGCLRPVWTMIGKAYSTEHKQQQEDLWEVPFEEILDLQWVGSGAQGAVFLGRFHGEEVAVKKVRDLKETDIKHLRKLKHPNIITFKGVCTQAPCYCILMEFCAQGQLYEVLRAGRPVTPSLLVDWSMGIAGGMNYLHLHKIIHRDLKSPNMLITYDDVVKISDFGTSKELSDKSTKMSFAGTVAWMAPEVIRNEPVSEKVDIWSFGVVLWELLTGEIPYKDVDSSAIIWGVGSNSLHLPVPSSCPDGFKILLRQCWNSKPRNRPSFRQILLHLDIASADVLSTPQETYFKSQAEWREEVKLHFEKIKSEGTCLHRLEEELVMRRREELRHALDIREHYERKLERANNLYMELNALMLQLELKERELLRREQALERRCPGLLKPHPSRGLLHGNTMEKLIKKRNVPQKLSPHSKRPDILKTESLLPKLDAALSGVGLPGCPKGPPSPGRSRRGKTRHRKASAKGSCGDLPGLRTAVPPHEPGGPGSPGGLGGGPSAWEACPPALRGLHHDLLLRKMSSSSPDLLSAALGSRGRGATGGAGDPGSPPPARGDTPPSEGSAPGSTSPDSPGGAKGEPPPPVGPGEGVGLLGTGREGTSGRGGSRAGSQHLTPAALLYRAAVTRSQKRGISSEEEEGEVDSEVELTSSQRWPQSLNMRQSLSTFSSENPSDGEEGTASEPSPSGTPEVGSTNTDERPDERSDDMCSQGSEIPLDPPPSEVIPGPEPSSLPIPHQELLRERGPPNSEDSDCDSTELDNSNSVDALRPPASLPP
The conditions noted are these: at 10 µM.

Assay [2] deals with Activin receptor type-2A (Homo sapiens) (UniProt P27037). Nature of the assay: Selectivity interaction (KinomeScan (DiscoverX)) EUB0000045b ACVR2A.
Activin receptor type-2A (Homo sapiens), sequence (P27037 whole entry): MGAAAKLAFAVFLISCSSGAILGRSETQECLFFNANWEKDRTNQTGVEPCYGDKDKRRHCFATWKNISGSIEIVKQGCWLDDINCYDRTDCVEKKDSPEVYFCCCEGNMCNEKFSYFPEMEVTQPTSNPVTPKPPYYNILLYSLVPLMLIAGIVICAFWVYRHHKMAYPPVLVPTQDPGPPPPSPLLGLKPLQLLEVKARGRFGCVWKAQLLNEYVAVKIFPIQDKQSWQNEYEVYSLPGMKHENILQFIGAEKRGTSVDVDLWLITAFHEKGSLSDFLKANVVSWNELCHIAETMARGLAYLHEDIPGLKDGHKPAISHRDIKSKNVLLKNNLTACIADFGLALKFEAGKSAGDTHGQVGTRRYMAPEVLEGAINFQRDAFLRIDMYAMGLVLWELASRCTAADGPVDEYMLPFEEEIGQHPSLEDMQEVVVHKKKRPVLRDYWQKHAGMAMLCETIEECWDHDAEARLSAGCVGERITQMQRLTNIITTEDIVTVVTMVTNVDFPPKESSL
For assay [3], the target named is T2, Interleukin-1 receptor-associated kinase 4 (Homo sapiens) (UniProt Q9NWZ3).
T2 sequence (whole entry): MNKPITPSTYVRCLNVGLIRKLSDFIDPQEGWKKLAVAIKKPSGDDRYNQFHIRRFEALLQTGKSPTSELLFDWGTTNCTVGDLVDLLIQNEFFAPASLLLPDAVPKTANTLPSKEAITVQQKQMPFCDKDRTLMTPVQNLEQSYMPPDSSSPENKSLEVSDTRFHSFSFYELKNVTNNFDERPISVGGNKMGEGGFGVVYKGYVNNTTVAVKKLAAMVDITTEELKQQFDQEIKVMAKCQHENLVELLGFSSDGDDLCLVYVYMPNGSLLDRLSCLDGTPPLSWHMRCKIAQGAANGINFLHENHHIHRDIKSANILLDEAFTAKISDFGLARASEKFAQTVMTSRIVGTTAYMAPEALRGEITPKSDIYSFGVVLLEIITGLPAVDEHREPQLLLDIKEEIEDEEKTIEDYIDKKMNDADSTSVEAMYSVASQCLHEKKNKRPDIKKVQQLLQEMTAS
Kind of assay: Selectivity interaction (Kinase panel (literature)) EUB0001199aCl IRAK4. Conditions: at 1 µM.

For assay [4], the target named is Glycogen synthase kinase-3 beta (Homo sapiens, UniProt P49841). Kind of assay: Selectivity interaction (Millipore kinase profiler) EUB0000124b GSK3B. Conditions: at 10 µM.
Glycogen synthase kinase-3 beta, sequence (P49841 whole entry, looked up): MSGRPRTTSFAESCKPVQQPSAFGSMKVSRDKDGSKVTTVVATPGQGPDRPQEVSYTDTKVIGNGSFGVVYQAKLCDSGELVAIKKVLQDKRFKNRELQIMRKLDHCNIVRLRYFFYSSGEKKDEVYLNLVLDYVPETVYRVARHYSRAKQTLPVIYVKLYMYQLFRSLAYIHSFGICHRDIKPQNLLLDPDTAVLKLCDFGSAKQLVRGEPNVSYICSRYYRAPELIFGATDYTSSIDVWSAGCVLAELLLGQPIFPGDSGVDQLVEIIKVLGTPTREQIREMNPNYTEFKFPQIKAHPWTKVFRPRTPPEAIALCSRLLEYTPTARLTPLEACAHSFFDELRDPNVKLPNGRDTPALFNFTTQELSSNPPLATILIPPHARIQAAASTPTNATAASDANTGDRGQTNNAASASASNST
Assay [5] has as its target Cyclin-dependent kinase 8 (Homo sapiens, UniProt P49336). Nature of the assay: Selectivity interaction (KinomeScan (DiscoverX)) EUB0000229b CDK8. The conditions noted are these: at 10 µM.
Assay [6] concerns the target T3, Serine/threonine-protein kinase 36 (Homo sapiens) (UniProt Q9NRP7).
T3 sequence (whole entry): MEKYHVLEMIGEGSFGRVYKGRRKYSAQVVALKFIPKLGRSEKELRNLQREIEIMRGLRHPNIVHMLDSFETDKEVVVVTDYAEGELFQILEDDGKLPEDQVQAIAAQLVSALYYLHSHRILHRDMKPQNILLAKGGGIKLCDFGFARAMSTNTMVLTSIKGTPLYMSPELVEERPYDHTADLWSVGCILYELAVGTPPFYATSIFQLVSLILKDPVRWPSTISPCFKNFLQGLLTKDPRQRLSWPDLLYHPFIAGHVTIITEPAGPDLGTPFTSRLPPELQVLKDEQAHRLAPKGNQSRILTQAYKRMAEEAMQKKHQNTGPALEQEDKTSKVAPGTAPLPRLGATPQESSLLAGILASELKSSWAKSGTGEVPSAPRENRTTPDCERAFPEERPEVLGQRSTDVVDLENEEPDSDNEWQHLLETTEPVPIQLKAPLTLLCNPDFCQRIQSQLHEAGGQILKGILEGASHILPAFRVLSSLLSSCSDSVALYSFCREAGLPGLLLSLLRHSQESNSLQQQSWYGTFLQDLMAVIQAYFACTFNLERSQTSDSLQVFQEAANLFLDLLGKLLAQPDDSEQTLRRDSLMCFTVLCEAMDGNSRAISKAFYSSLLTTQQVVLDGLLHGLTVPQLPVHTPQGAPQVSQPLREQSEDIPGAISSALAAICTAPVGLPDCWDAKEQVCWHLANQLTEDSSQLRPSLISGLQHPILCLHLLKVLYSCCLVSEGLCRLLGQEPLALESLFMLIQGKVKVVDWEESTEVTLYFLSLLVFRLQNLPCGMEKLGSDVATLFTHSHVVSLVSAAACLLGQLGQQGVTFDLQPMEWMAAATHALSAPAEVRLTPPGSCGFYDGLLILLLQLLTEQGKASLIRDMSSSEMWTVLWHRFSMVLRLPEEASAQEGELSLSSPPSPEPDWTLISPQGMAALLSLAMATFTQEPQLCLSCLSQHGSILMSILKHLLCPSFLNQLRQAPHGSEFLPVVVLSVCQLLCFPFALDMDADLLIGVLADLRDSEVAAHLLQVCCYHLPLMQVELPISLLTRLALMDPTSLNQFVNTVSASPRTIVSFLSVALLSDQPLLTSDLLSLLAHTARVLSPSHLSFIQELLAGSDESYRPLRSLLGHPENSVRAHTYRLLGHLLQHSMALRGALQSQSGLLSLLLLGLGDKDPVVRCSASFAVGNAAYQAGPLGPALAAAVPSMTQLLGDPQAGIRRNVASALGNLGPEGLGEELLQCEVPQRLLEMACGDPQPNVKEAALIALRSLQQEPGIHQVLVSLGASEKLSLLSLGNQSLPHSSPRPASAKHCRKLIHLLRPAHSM
Nature of the assay: Selectivity interaction (KinomeScan (DiscoverX)) EUB0000229b STK36. The conditions noted are these: at 10 µM.

Cyclin-dependent kinase 8, sequence (P49336 whole entry): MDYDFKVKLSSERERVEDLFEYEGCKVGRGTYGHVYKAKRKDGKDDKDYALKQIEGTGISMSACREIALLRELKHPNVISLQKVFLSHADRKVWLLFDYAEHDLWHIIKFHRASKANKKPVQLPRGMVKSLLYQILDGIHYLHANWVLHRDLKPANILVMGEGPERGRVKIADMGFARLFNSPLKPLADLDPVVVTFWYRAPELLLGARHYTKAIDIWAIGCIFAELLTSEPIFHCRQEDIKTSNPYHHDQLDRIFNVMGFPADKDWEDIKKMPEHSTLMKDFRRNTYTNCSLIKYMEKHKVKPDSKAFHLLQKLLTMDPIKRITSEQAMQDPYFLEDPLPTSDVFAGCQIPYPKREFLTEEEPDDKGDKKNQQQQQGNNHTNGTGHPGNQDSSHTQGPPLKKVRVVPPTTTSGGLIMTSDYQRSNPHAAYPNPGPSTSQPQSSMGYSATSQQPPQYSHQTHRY

Take `Cc1cc([C@@H](C)Nc2ccccc2C(=O)O)c2nc(N3CCOCC3)cc(=O)n2c1` [AZD-6482]: the % of control in assay [1] was determined as 85%.
Regarding `C=CC(=O)Nc1cc(-n2c(=O)ccc3cnc4ccc(-c5ccc(NS(C)(=O)=O)cc5)cc4c32)ccc1C`, the % of control in assay [2] (at 1 µM) was 94%; in assay [2] (at 10 µM) it was 88%.
As for `CN1Cc2nccc(-c3cn(C)nc3-c3ccc(F)cc3)c2C1=O`, the % of inhibition in assay [3] was -8%.
On to `CC(=O)Nc1cccc(-n2c(=O)n(C3CC3)c(=O)c3c(Nc4ccc(I)cc4F)n(C)c(=O)c(C)c32)c1`, for which, in assay [4], the % of control was found to be 98%.
As for `COc1cc(N(C)c2ccnc3ccc(C(F)(F)F)cc23)cc(OC)c1OC`, the % binding in assay [5] and in assay [6] was 100% in each case.
